Results reported in patent US20240124418A1 (BioTheryX, Inc., priority 2020, published 2024).

Tests used:
PDE4B = target: T1, PDE4B (Homo sapiens, UniProt Q07343); assay: Protein degradation assay, western blot, PDE4B in A549 cells; format: cell-based; details: 24 h treatment, 'as high as about' = upper value for the group, read-out: PDE4B degradation relative to DMSO
T1 construct: endogenous in cells; host or cells: A549
Protocol: Example B2. Protein Degradation Assay
A549 cells were grown in RPMI 1640 media supplemented with 10% fetal bovine serum, streptomycin, and penicillin. The cells were plated in 6-well plates at 300,000 cells/well in the growth media. After overnight incubation, the cells were treated with DMSO (control) or a compound at predetermined concentrations (e.g., 10 nM, 100 nM, 1 μM, 3 μM, or 10 μM) for 24 h at 37° C. under 5% CO2. Whole cell extracts were prepared using an immunoprecipitation (IP) lysis buffer. The cells were washed once in PBS, and the cell pellets were resuspended in the IP lysis buffer and incubated for 15 min on ice. Cells debris was removed by centrifugation and the cleared whole cell lysates were transferred to new tubes for further analysis.
For a western blot analysis, the whole cell protein extracts were separated on 4-12% SDS-polyacrylamide gels, transferred to nitrocellulose, and probed with primary antibodies. Membranes were subsequently washed and probed with IRDYE® secondary antibodies. The signals were detected using an ODYSSEY® Imaging System. The antibodies used in the assay included anti-PDE4B antibody; anti-PDE4D antibodies (top, bottom, and short isoform); β-actin mouse monoclonal antibody; IRDYE® 680RD goat anti-rabbit antibody; and IRDYE® 800CW goat anti-mouse antibody. The compounds provided herein are PDE4 protein degraders.

TNF-α = assay: Cell-based TNF-α inhibition assay (LPS-induced PBMCs, Meso Scale); details: PBMC, PBMCs pretreated 1 h, LPS 100 ng/mL 18-24 h, percentage of stimulated DMSO control; for inhibition at 0.1 µM: compound concentration 0.1 μM; for inhibition at 1 µM: compound concentration 1 μM
Summary of the method: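 Thawed primary PBMCs (200,000 cells/well, RPMI 1640 with 10% FBS) were pretreated with compound for 1 h, then stimulated with 100 ng/mL LPS for 18–24 h. Supernatant TNF-α was measured by Meso Scale, and activity was expressed as percent inhibition relative to the stimulated DMSO control.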

T1 sequence (Q07343 whole entry): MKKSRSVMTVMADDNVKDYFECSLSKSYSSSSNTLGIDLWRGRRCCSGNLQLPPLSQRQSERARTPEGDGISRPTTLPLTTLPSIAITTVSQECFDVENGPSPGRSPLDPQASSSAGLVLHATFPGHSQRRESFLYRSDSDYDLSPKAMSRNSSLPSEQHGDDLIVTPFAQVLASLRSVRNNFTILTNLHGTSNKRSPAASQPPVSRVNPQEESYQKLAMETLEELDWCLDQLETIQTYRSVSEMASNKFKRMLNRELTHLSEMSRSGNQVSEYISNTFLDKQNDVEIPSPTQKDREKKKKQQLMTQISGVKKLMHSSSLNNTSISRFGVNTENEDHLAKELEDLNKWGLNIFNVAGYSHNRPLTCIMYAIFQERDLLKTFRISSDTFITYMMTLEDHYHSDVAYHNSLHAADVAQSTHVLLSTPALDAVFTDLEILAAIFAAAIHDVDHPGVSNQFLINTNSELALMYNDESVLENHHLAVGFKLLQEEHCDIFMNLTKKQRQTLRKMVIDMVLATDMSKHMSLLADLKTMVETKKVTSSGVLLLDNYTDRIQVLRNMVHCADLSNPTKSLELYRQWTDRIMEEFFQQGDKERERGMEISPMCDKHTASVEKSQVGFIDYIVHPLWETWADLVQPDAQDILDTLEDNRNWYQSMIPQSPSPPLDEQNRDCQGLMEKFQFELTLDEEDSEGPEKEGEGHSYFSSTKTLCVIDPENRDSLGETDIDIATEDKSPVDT

Structure (SMILES) | Dmax (PDE4B) [%] | inhibition at 0.1 µM (TNF-α) [%] | inhibition at 1 µM (TNF-α) [%]
CCOc1cc([C@@H](CS(C)(=O)=O)N2C(=O)c3cc(CCCCCCCN4CCC(c5cc(F)cc6c5CN(C5CCC(=O)NC5=O)C6=O)CC4)cc(NC(C)=O)c3C2=O)ccc1OC (stereo partly drawn) [Compound A1, N-(6-(7-(4-(2-(2,6-Dioxopiperidin-3-yl)-6-fluoro-1-oxoisoindolin-4-yl)piperidin-1-yl)heptyl)-2-((S)-1-(3-ethoxy-4-methoxyphenyl)-2-(methylsulfonyl)ethyl)-1,3-dioxoisoindolin-4-yl)acetamide] | ≤ 70 | ≥ 60 | –
CCOc1cc([C@@H](CS(C)(=O)=O)N2C(=O)c3cccc(NC(=O)COCCOCCOCCOCCNc4cccc5c4C(=O)N(C4CCC(=O)NC4=O)C5=O)c3C2=O)ccc1OC (stereo partly drawn) [Compound A4, 14-((2-(2,6-Dioxopiperidin-3-yl)-1,3-dioxoisoindolin-4-yl)amino)-N-(2-((S)-1-(3-ethoxy-4-methoxyphenyl)-2-(methylsulfonyl)ethyl)-1,3-dioxoisoindolin-4-yl)-3,6,9,12-tetraoxatetradecan-1-amide] | ≤ 70 | ≥ 60 | –
CCOc1cc([C@@H](CS(C)(=O)=O)N2C(=O)c3cc(CCCCCCCC4CCN(c5cccc6c5C(=O)N(C5CCC(=O)NC5=O)C6=O)CC4)cc(NC(C)=O)c3C2=O)ccc1OC (stereo partly drawn) [Compound A8, N-(6-(7-(1-(2-(2,6-Dioxopiperidin-3-yl)-1,3-dioxoisoindolin-4-yl)piperidin-4-yl)-heptyl)-2-((S)-1-(3-ethoxy-4-methoxyphenyl)-2-(methylsulfonyl)ethyl)-1,3-dioxoisoindolin-4-yl)acetamide] | ≤ 70 | ≥ 60 | ≥ 60
CCOc1cc([C@@H](CS(C)(=O)=O)N2C(=O)c3cccc(NC(=O)CCOCCOCCNc4cccc5c4C(=O)N(C4CCC(=O)NC4=O)C5=O)c3C2=O)ccc1OC (stereo partly drawn) [Compound A9, 3-(2-(2-((2-(2,6-Dioxopiperidin-3-yl)-1,3-dioxoisoindolin-4-yl)amino)-ethoxy)ethoxy)-N-(2-((S)-1-(3-ethoxy-4-methoxyphenyl)-2-(methylsulfonyl)ethyl)-1,3-dioxoisoindolin-4-yl)propanamide] | ≤ 70 | ≥ 60 | ≥ 60
CCOc1cc([C@@H](CS(C)(=O)=O)N2C(=O)c3cccc(NC(=O)CCOCCOCCOCCNc4cccc5c4C(=O)N(C4CCC(=O)NC4=O)C5=O)c3C2=O)ccc1OC (stereo partly drawn) [Compound A10, 3-(2-(2-(2-((2-(2,6-Dioxopiperidin-3-yl)-1,3-dioxoisoindolin-4-yl)amino)ethoxy)-ethoxy)ethoxy)-N-(2-((S)-1-(3-ethoxy-4-methoxyphenyl)-2-(methylsulfonyl)ethyl)-1,3-dioxoisoindolin-4-yl)propanamide] | ≤ 70 | < 20 | < 20
Cc1ncsc1-c1ccc(CNC(=O)[C@@H]2C[C@@H](O)CN2C(=O)[C@@H](NC(=O)CCCCCCCCOc2cc(C(=O)Nc3c(Cl)cncc3Cl)ccc2OC(F)F)C(C)(C)C)cc1 [Compound B20, (2S,4R)-1-((S)-2-(9-(5-((3,5-Dichloropyridin-4-yl)carbamoyl)-2-(difluoromethoxy)phenoxy)nonanamido)-3,3-dimethylbutanoyl)-4-hydroxy-N-(4-(4-methylthiazol-5-yl)benzyl)pyrrolidine-2-carboxamide] | ≤ 70 | – | –
Cc1ncsc1-c1ccc(CNC(=O)[C@@H]2C[C@@H](O)CN2C(=O)[C@@H](NC(=O)CCCCCCCCCCOc2cc(C(=O)Nc3c(Cl)cncc3Cl)ccc2OC(F)F)C(C)(C)C)cc1 [Compound B21, (2S,4R)-1-((S)-2-(11-(5-((3,5-dichloropyridin-4-yl)carbamoyl)-2-(difluoromethoxy)phenoxy)undecanamido)-3,3-dimethylbutanoyl)-4-hydroxy-N-(4-(4-methyl-thiazol-5-yl)benzyl)pyrrolidine-2-carboxamide] | ≤ 70 | – | –
